Source: patent US12595252B2, “Inhibitors of SARM1” (DISARM THERAPEUTICS, INC., priority 2019, dated 2026)

target: T1, SARM1 (Homo sapiens, UniProt Q6SZW1); experiment: ARM-SAM-TIR SARM1 IC50 assay (NADase activity, NAD+ cleavage); assay type: biochemical; details: ARM-SAM-TIR lysate 5 μg/mL from NRK1-HEK293T cells; 2 h pre-incubation; 5 μM NAD+; 2 hr room temperature; NAD+ and ADPR by RapidFire MS; read-out: SARM1 IC50
T1 construct: made in house; host or cells: NRK1-HEK293T cells, transiently transfected; clarified lysate used unpurified
T1 sequence (Q6SZW1 with tags, fused parts or gaps): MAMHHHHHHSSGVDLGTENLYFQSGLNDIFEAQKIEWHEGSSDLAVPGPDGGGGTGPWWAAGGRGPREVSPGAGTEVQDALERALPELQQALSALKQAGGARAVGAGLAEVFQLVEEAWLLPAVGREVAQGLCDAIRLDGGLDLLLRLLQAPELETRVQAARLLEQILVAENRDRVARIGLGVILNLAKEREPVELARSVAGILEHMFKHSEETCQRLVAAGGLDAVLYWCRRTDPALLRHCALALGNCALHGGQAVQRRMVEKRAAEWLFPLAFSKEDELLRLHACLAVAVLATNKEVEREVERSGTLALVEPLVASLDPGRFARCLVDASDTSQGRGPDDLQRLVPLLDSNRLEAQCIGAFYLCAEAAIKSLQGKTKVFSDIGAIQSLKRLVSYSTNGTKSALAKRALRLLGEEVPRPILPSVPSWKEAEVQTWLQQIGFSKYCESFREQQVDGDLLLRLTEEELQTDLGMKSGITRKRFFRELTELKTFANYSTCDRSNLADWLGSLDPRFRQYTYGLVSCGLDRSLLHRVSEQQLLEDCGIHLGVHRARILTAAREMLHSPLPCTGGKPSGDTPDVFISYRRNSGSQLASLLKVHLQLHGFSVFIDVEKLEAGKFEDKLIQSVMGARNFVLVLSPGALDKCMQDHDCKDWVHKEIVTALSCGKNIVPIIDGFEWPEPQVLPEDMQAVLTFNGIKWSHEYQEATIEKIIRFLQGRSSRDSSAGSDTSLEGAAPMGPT
Protocol: This Example describes an assay of ARM-SAM-TIR NADase activity and use of this assay to measure the efficacy of compounds of Formula I to block SARM1 mediated NAD+ cleavage. This assay is optimized in such a way as to characterize the efficacy of the compounds in Formula I to inhibit SARM1 activity and to calculate an IC50 value for each compound. This assay makes use of full length SARM1, which encompasses the ARM, SAM and TIR domains.
NRK1-HEK293T cells were seeded onto 150 cm^2 plates at 20×10^6 cells per plate. The next day, the cells were transfected with 15 μg ARM-SAM-TIR expression plasmid, SEQ ID NO: 1.
The cultures were supplemented with 1 mM NR at time of transfection to minimize toxicity from ARM-SAM-TIR overexpression. Forty-eight hours after transfection, cells were harvested, pelleted by centrifugation at 1,000 rpm (Sorvall ST 16R centrifuge, Thermo Fisher), and washed once with cold PBS (0.01 M phosphate buffered saline NaCl 0.138 M; KCl 0.0027 M; pH 7.4). The cells were resuspended in PBS with protease inhibitors (cOmplete™ protease inhibitor cocktail, Roche product #11873580001) and cell lysates were prepared by sonication (Branson Sonifer 450, output=3, 20 episodes of stroke). The lysates were centrifuged (12,000×g for 10 min at 4° C.) to remove cell debris and the supernatants (containing ARM-SAM-TIR protein) were stored at −80° C. for later use in the in vitro ARM-SAM-TIR NADase assay (see below). Protein concentration was determined by the Bicinchoninic (BCA) method and used to normalize lysate concentrations.
The enzymatic assay was performed in a 384-well polypropylene plate in Dulbecco's PBS buffer in a final assay volume of 20 μL. ARM-SAM-TIR lysate with a final concentration of 5 μg/mL was pre-incubated with the respective compound at 1% DMSO final assay concentration over 2 h at room temperature. The reaction was initiated by addition of 5 μM final assay concentration of NAD+ as substrate. After a 2 hr room temperature incubation, the reaction was terminated with 40 μL of stop solution of 7.5% trichloroacetic acid in acetonitrile. The NAD+ and ADPR concentrations were analyzed by a RapidFire High Throughput Mass Spectrometry System (Agilent Technologies, Santa Clara, Calif.) using an API4000 triple quadrupole mass spectrometer (AB Sciex Framingham, Mass.).

First: COc1cncc(NCc2cccnc2)n1 [Example 12]
Second: OCc1cncc(NCc2cccnc2)n1 [Example 215]
The IC50 of the first is lower: 5 to 15 µM for the first, over 30 µM for the second.

`Brc1cncc(OCc2cccnc2)n1` [Example 188] and `CCOc1cncc(OCc2cccnc2)n1` [Example 190] cannot be ordered by IC50: over 30 µM for the first, over 30 µM for the second.

First: CNC(=O)c1cncc(NCc2cccnc2)n1 [Example 139]
Second: CN(C)C(=O)c1cncc(NCc2cccnc2)n1 [Example 213]
The IC50 of the first is lower: 5 to 15 µM for the first, over 30 µM for the second.

First: CCOc1cncc(NCc2ccc(N3CCN(CC)CC3)nc2)n1 [Example 3]
Second: c1cncc(CNc2cncc(OCC3CCCC3)n2)c1 [Example 199]
The IC50 of the first is lower: 5 to 15 µM for the first, over 30 µM for the second. The first is the more potent here.

Compared with `CNc1cncc(Br)n1` [Example 218], `CNc1cncc(NCCCCO)n1` [Example 166] is lower in IC50: over 30 µM for the first, 15 to 30 µM for the second.

`COc1cncc(NCc2nccn2C)n1` [Example 51] and `COc1cncc(NCc2ccc(C(=O)O)cc2)n1` [Example 76] cannot be ordered by IC50: over 30 µM for the first, over 30 µM for the second.

In the case of `COc1cncc(NCc2cccnc2)c1C` [Example 34], the IC50 is reported as over 30 µM.
